Columns and labels:
denuded oocytes, DO = test: Oocyte test, denuded oocytes (DO); format: cell-based, mice; conditions: HX-medium, 24 hours culture
Procedure: (§1) Animals: Immature female mice (B6D2-F1, strain C57B1/2J) were kept under controlled lighting (14 hr light, 10 hr dark) and temperature, with food and water ad libitum. When the animals reached a weight of 13-16 grams (which correspond to the age of 20 to 22 days post partum) they were given a single injection (i.p.) of human menopausal gonadotropin (Humegon, Organon, The Netherlands) containing approximately 20 IU FSH and 20 IU LH (Ziebe, S. et al. Hum. Reprod. 8(1993) 385-88). 48 hours later the animals were killed by cervical dislocation.
(§2) Collection and culture of oocytes: The ovaries were removed, placed in HX-medium (se below) and freed of extraneous tissue. The collection- and culture medium consisted of Eagles minimum essential medium (Flow, USA), containing 4 mM hypoxanthine, 3 mg/ml of bovine serum albumin, 0.23 mM sodium pyruvate, 2 mM glutamine, 100 U/ml of penicillin, and […] of streptomycin (all Sigma, USA). This medium is termed HX-medium. The same medium but without HX was used as control medium.
(§3) The antral follicles of the ovaries were punctured under a dissecting microscope using a 27-gauge needle. Cumulus enclosed oocyte (CEO) of uniform size were selected and rinsed three times in fresh HX-medium.
(§4) Oocytes freed from cumulus cells, i.e. denuded oocytes, DO, were obtained by gentle flushing CEO through a fine-bore mouth-controlled pipet. CEO and DO were cultured in 4-well multidishes (Nunclon, Denmark) containing 0.5 ml of HX-medium except the controls which were cultured in control medium. Each well contained 35 to 50 oocytes.
(§5) The cultures were performed at 37° C. and 100% humidity with 5% CO2 in air. The culture time was 24 hours.
(§6) Examination of oocytes: By the end of the culture period the number of oocytes with germinal vesicle (GV) or germinal vesicle breakdown (GVBD) and those with polar body (PB) was counted in an inverted microscope with differential interference contrast equipment. The percentage of oocytes with GVBD per total number of oocytes and the percentage of oocytes with PB per GVBD was calculated. One unit of MIS activity is defined as: [formula]
(§7) and the number of MIS activity units is calculated as: [formula]

[1] = system: Cumulus enclosed oocyte (CEO); test: Oocyte test, cumulus enclosed oocytes (CEO); format: cell-based, mice; conditions: HX-medium, 24 hours culture
Procedure: as §1, §2, §3, §4, §5, §6, §7

[2] = system: oocytes of isolated perfused ovaries; test: GVB in isolated perfused ovaries from immature rats; design: species or system Immature Sprague-Dawley rats; conditions: for % GVB (oocytes undergoing germinal vesicle breakdown per total oocytes per ovary), mean±sd: perfusion up to 12 h, 7 ovaries
Procedure: Animals and Experimental Procedure: Immature Sprague-Dawley rats (body weight: 50-55 g) were injected s.c. with 20 IU pregnant mare serum gonadotropin (PMSG). 48 hours later, the rats were anesthetized with a combination of Ketavet/Rompun (105 and 8.3 mg/kg BW, respectively). Heparin sulfate (300 IU) was injected into the tail vein.
Ovaries with connecting vasculature were surgically isolated and perfusions were performed in a recirculating system (Koos RD et al. (1984) Biol Reprod 30:1135-1141) containing approximately 35 ml of perfusion medium (Medium 199 with Earle's salts supplemented with 50 μg/ml gentamycin sulfate, 0.2 IU/ml insulin, and 4% BSA).
The ovaries were initially perfused for approximately 1 hour to allow metabolic stabilization of the tissue. Only the ovarian specimens which maintained a flow rate between 0.8 and 1.5 ml/min at pressure of 80 mmHg during the stabilization period were used in the experiments.
After 1 hour of preperfusion, the effect of 4,4-dimethyl-5^α-cholesta-8,14,24-triene-3^β-ol (FF-MAS), IBMX (iso-butyl-methyl-xanthine), LH (luteinizing hormone), and cholesterol were tested by dividing the ovarian specimens into control and experimental groups. Additions to the perfusion medium were made as follows:
Prior to addition to the perfusion medium, FF-MAS and cholesterol were diluted in ethanol, and LH and IBMX were diluted in perfusion medium. For the investigation of meiosis, perfusions were continued up to 12 h after addition of the compounds.
At termination of each perfusion ovaries were dissected free from adherent tissue and oocytes isolated under a stereo microscope by manual rupture of the follicles using a pair of 27 gauge needles. Oocytes per ovary were counted and examined using Nomarski differential interference contrast optics.
Oocytes with a germinal vesicle breakdown (GVB) were regarded as undergoing meiotic maturation (Tsafiri et al. (1980) J. Reprod. Fertil. 60:399-402). The % GVB, defined as percentage of oocytes undergoing GVB per total number of oocytes in each ovary was calculated. Each experimental group consisted of 7 perfused ovaries. Data are presented as mean±sd. Statistical differences were calculated by one-way ANOVA followed by Students's t-test. P-values<0.05 indicated a statistically significant higher % GVB in treated groups compared to the control.

With CC(=O)OC1CC[C@]2(C)C3=C(CCC2C1(C)C)C1=CC[C@H]([C@H](C)CCCC(C)C)[C@@]1(C)CC3 (some centres unmarked) the melting point was 120 to 125 °C.

For CC(C)CCC[C@@H](C)[C@H]1CC[C@H]2C3=C(CC[C@]12C)[C@@]1(C)CC[C@H](O)C(C)(C)C1CC3 (stereo partly drawn) [4,4-Dimethylcholest-8-ene-^3β-ol], the “DO, units of MIS activity” value (denuded oocytes, DO; 0.03 μg/ml) was 0.8 units of MIS activity and the “CEO, units of MIS activity” value ([1]; 0.03 μg/ml) was 12.8 units of MIS activity.

For CC(C)=CCC[C@@H](C)[C@H]1CC[C@H]2C3=C(CC[C@]12C)[C@@]1(C)CC[C@H](O)C(C)(C)[C@@H]1CC3 [4,4-Dimethyl-zymosterol, 4,4-dimethyl-^5α-cholesta-8,24-diene-^3β-ol], the “DO, units of MIS activity” value (denuded oocytes, DO; 0.002 μg/ml) was 0.9 units of MIS activity, the “DO, units of MIS activity” value (denuded oocytes, DO; 0.02 μg/ml) was 1.5 units of MIS activity and the “DO, units of MIS activity” value (denuded oocytes, DO; 0.2 μg/ml) was 0.6 units of MIS activity. For the same compound, the “DO, units of MIS activity” value (denuded oocytes, DO; 0.3 μg/ml) was 1.8 units of MIS activity, the “DO, units of MIS activity” value (denuded oocytes, DO; 1.2 μg/ml) was 2.7 units of MIS activity and the “CEO, units of MIS activity” value ([1]; 0.002 μg/ml) was 1.0 units of MIS activity. The “CEO, units of MIS activity” value ([1]; 0.02 μg/ml) was 1.3 units of MIS activity, the “CEO, units of MIS activity” value ([1]; 0.2 μg/ml) was 1.3 units of MIS activity and the “CEO, units of MIS activity” value ([1]; 0.3 μg/ml) was 2.7 units of MIS activity. For the same compound, the “CEO, units of MIS activity” value ([1]; 1.2 μg/ml) was 2.9 units of MIS activity.

With CC(C)=CCC[C@@H](C)[C@H]1CC[C@H]2C3=C(CC[C@]12C)[C@@]1(C)CC[C@H](O)[C@H](C)[C@@H]1CC3 [^4β-Methylzymosterol, 4^β-Methylzymosterol] the “DO, units of MIS activity” value (denuded oocytes, DO; 0.13 μg/ml) was 0.8 units of MIS activity, the “DO, units of MIS activity” value (denuded oocytes, DO; 3.9 μg/ml) was 6.2 units of MIS activity and the “CEO, units of MIS activity” value ([1]; 0.13 μg/ml) was 2.4 units of MIS activity. For the same compound, the “CEO, units of MIS activity” value ([1]; 3.9 μg/ml) was 3.5 units of MIS activity.

For CC(C)=CCC[C@@H](C)[C@H]1CC=C2C3=C(CC[C@@]21C)[C@@]1(C)CC[C@H](O)C(C)(C)[C@@H]1CC3 [4,4-dimethyl-^5α-cholesta-8,14,24-triene-^3β-ol], the “DO, units of MIS activity” value (denuded oocytes, DO; 0.03 μg/ml) was 1.6 units of MIS activity, the “DO, units of MIS activity” value (denuded oocytes, DO; 0.3 μg/ml) was 0.6 units of MIS activity and the “CEO, units of MIS activity” value ([1]; 0.03 μg/ml) was 0.5 units of MIS activity. The “CEO, units of MIS activity” value ([1]; 0.3 μg/ml) was 2.3 units of MIS activity, the “% GVB (oocytes undergoing germinal vesicle breakdown per total oocytes per ovary), mean±sd” value ([2]; 30 μM with 0.2 mM IBMX) was 14.6±4.2% and the “% GVB (oocytes undergoing germinal vesicle breakdown per total oocytes per ovary), mean±sd” value ([2]; 60 μM with 0.2 mM IBMX) was 66.9±7.4%. The effective dose ([2]; corresponds to the effective 30-60 μM in perfused rat ovaries) was 12-24 mg/liter bood volume.

With CC(C)CCC[C@@H](C)[C@H]1CC=C2C3=C(CC[C@@]21C)[C@@]1(C)CC[C@H](O)C(C)(C)C1CC3 (stereo partly drawn) [4,4-Dimethylcholesta-8,14-dien-^3β-ol, 4,4-Dimethylcholesta-8,14-Dien-^3β-ol] the “DO, units of MIS activity” value (denuded oocytes, DO; 3.0 μg/ml) was 2.25 units of MIS activity and the “CEO, units of MIS activity” value ([1]; 3.0 μg/ml) was 0 units of MIS activity.

In the case of CC(C)CCC[C@@H](C)[C@H]1CC[C@H]2[C@@H]3CC=C4C[C@@H](O)CC[C@]4(C)[C@H]3CC[C@]12C [cholesterol, reference compound], the “% GVB (oocytes undergoing germinal vesicle breakdown per total oocytes per ovary), mean±sd” value ([2]; 60 μM with 0.2 mM IBMX) is reported as 2.1±1.8%.

In the case of CC(C)=CCC[C@@H](C)[C@H]1CC[C@H]2C3=C(CC[C@]12C)[C@@]1(C)CC[C@H](O)C[C@@H]1CC3 [Zymosterol], the “DO, units of MIS activity” value (denuded oocytes, DO; 0.01 μg/ml) is reported as 0.6 units of MIS activity, the “DO, units of MIS activity” value (denuded oocytes, DO; 0.1 μg/ml) is reported as 1.2 units of MIS activity and the “CEO, units of MIS activity” value ([1]; 0.001 μg/ml) is reported as 0.2 units of MIS activity. The “CEO, units of MIS activity” value ([1]; 0.01 μg/ml) was 0.4 units of MIS activity and the “CEO, units of MIS activity” value ([1]; 0.1 μg/ml) was 1.1 units of MIS activity.
